Results from patent US9833497B2, “Human originated EGF domain proteins and use of the same” (CHENGDU SOURCEBIO LIMITED-LIABILITY COMPANY, priority 2013, dated 2017).

Tests used:
Type in all cases: cell-based
E. coli DH5α = test: Antibacterial activity: MIC and growth curve against E. coli DH5α in 96-well plate; settings: minimal inhibitory concentration against E. coli DH5α; 96-well plate, 5×10^5 CFU/mL, 37° C., judged after 8 h
Outline: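 Log-phase DH5α (OD600 about 0.5, 37° C, 185 rpm in LB) was pelleted, resuspended in fresh LB and seeded at 5×10^5 CFU/mL with recombinant protein at 50, 25 and 12.5 μg/mL (two-fold series), in triplicate. Plates were shaken at 175 rpm, 37° C, and OD600 was read every 30 min. MIC was the lowest concentration with no growth.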

E. coli BL21 = test: MIC against Gram-negative bacteria: E. coli BL21; settings: 5×10^5 CFU/mL; for MIC E. coli BL21: two-fold serial dilution; for MIC against E. coli BL21: 96-well plate, 37° C., 10 h
Outline: (§1)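 Broth microdilution, LB medium, final inoculum 5×10^5 CFU/mL from McFarland 0.5 cultures. Recombinant human EGF domain proteins tested in two-fold steps, n=3. MIC: lowest concentration, no growth.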

Pseudomonas aeruginosa = test: MIC against Gram-negative bacteria: Pseudomonas aeruginosa; settings: 5×10^5 CFU/mL; for MIC P. aeruginosa: two-fold serial dilution; for MIC against P. aeruginosa: 96-well plate, 37° C., 10 h
Outline: as §1

Klebsiella pneumonia = test: MIC against Gram-negative bacteria: Klebsiella pneumonia; settings: 5×10^5 CFU/mL; for MIC K. pneumonia: two-fold serial dilution; for MIC against K. pneumonia: 96-well plate, 37° C., 10 h
Outline: as §1

Enterobacter cloacae = test: MIC against Gram-negative bacteria: Enterobacter cloacae; settings: 5×10^5 CFU/mL; for MIC E. cloacae: two-fold serial dilution; for MIC against E. cloacae: 96-well plate, 37° C., 10 h
Outline: as §1

Aeromonas hydrophila = test: MIC against Gram-negative bacteria: Aeromonas hydrophila; settings: 5×10^5 CFU/mL; for MIC A. hydrophila: two-fold serial dilution; for MIC against A. hydrophila: 96-well plate, 37° C., 10 h
Outline: as §1

Citrobacter diversus = test: MIC against Gram-negative bacteria: Citrobacter diversus; settings: 5×10^5 CFU/mL; for MIC C. diversus: two-fold serial dilution; for MIC against C. diversus: 96-well plate, 37° C., 10 h
Outline: as §1

Moraxella catarrhalis = test: MIC against Gram-negative bacteria: Moraxella catarrhalis; settings: 5×10^5 CFU/mL; for MIC M. catarrhalis: two-fold serial dilution; for MIC against M. catarrhalis: 96-well plate, 37° C., 10 h
Outline: as §1

Proteus mirabilis = test: MIC against Gram-negative bacteria: Proteus mirabilis; settings: 5×10^5 CFU/mL; for MIC P. mirabilis: two-fold serial dilution; for MIC against P. mirabilis: 96-well plate, 37° C., 10 h
Outline: as §1

Proteus vulgaris = test: MIC against Gram-negative bacteria: Proteus vulgaris; settings: 5×10^5 CFU/mL; for MIC P. vulgaris: two-fold serial dilution; for MIC against P. vulgaris: 96-well plate, 37° C., 10 h
Outline: as §1

Serratia marcescens = test: MIC against Gram-negative bacteria: Serratia marcescens; settings: 5×10^5 CFU/mL; for MIC S. marcescens: two-fold serial dilution; for MIC against S. marcescens: 96-well plate, 37° C., 10 h
Outline: as §1

Row | Substance | MIC (E. coli DH5α) | MIC E. coli BL21 (E. coli BL21; 10 h cultivation at 37° C.) | MIC P. aeruginosa (Pseudomonas aeruginosa; 10 h cultivation at 37° C.) | MIC K. pneumonia (Klebsiella pneumonia; 10 h cultivation at 37° C.) | MIC E. cloacae (Enterobacter cloacae; 10 h cultivation at 37° C.) | MIC A. hydrophila (Aeromonas hydrophila; 10 h cultivation at 37° C.) | MIC C. diversus (Citrobacter diversus; 10 h cultivation at 37° C.) | MIC M. catarrhalis (Moraxella catarrhalis; 10 h cultivation at 37° C.) | MIC P. mirabilis (Proteus mirabilis; 10 h cultivation at 37° C.) | MIC P. vulgaris (Proteus vulgaris; 10 h cultivation at 37° C.) | MIC S. marcescens (Serratia marcescens; 10 h cultivation at 37° C.) | MIC against E. coli BL21 (E. coli BL21) | MIC against P. aeruginosa (Pseudomonas aeruginosa) | MIC against K. pneumonia (Klebsiella pneumonia) | MIC against E. cloacae (Enterobacter cloacae) | MIC against A. hydrophila (Aeromonas hydrophila) | MIC against C. diversus (Citrobacter diversus) | MIC against M. catarrhalis (Moraxella catarrhalis) | MIC against P. mirabilis (Proteus mirabilis) | MIC against P. vulgaris (Proteus vulgaris) | other results
1 | PRT1111 (SEDMCSPDPCFNGGTCLVTWNDFHCTCPANFTGPTCA; listed as Homo sapiens) | 12.5 µg/mL | 50 µg/mL | 12.5 µg/mL | 50 µg/mL | 25 µg/mL | 25 µg/mL | 12.5 µg/mL | 25 µg/mL | 50 µg/mL | 25 µg/mL | 12.5 µg/mL |  |  |  |  |  |  |  |  |  | 
2 | PRT756 (KIDYCASSNHGCQHECVNTDDSYSCHCLKGFTLNPDKKTCR; listed as Homo sapiens) | 12.5 µg/mL |  |  |  |  |  |  |  |  |  |  |  |  |  |  |  |  |  |  |  | MIC (μg/mL) E. coli BL21 (E. coli BL21; E. coli BL21, 10 h cultivation at 37° C.): 25 µg/mL; MIC (μg/mL) P. aeruginosa (Pseudomonas aeruginosa; P. aeruginosa, 10 h cultivation at 37° C.): 12.5 µg/mL; MIC (μg/mL) K. pneumonia (Klebsiella pneumonia; K. pneumonia, 10 h cultivation at 37° C.): 50 µg/mL; MIC (μg/mL) E. cloacae (Enterobacter cloacae; E. cloacae, 10 h cultivation at 37° C.): 12.5 µg/mL; MIC (μg/mL) A. hydrophila (Aeromonas hydrophila; A. hydrophila, 10 h cultivation at 37° C.): 50 µg/mL; MIC (μg/mL) C. diversus (Citrobacter diversus; C. diversus, 10 h cultivation at 37° C.): 12.5 µg/mL; MIC (μg/mL) M. catarrhalis (Moraxella catarrhalis; M. catarrhalis, 10 h cultivation at 37° C.): 50 µg/mL; MIC (μg/mL) P. mirabilis (Proteus mirabilis; P. mirabilis, 10 h cultivation at 37° C.): 12.5 µg/mL; MIC (μg/mL) P. vulgaris (Proteus vulgaris; P. vulgaris, 10 h cultivation at 37° C.): 50 µg/mL; MIC (μg/mL) S. marcescens (Serratia marcescens; S. marcescens, 10 h cultivation at 37° C.): 12.5 µg/mL
3 | PRT1136 (KQQFCQESLSSEFCSGHGKCLSEAWSKTYSCHCQPPFSGKYCQ; listed as Homo sapiens) | 50 µg/mL | 12.5 µg/mL | 50 µg/mL | 12.5 µg/mL | 50 µg/mL | 12.5 µg/mL | 50 µg/mL | 12.5 µg/mL | 25 µg/mL | 50 µg/mL | 12.5 µg/mL |  |  |  |  |  |  |  |  |  | 
4 | PRT558 (CTCDPRGALDQLCGAGGLCRCRPGYTGTACQECSPGFHGFPSCVP; listed as Homo sapiens) | 12.5 µg/mL |  |  |  |  |  |  |  |  |  |  | 25 µg/mL | 12.5 µg/mL | 25 µg/mL | 50 µg/mL | 25 µg/mL | 12.5 µg/mL | 25 µg/mL | 50 µg/mL | 25 µg/mL | MIC against S. marcescens (Serratia marcescens): 12.5 µg/mL
5 | PRT453 (DINECEQFGTCPQHCRNTKGSYECVCADGFT; listed as Homo sapiens) | 25 µg/mL |  |  |  |  |  |  |  |  |  |  | 12.5 µg/mL | 25 µg/mL | 50 µg/mL | 25 µg/mL | 12.5 µg/mL | 25 µg/mL | 50 µg/mL | 25 µg/mL | 12.5 µg/mL | MIC against S. marcescens (Serratia marcescens): 25 µg/mL
